# Assay results reported in patent publication US8759364B2, “Methods of treating bone mass diseases” (The Trustees of Columbia University in the City of New York, priority 2008, dated 2014).
# Key:
# peripheral serotonin = experiment: Effect of oral CBMIDA on peripheral serotonin production in mice (serum serotonin ELISA), Example 1; type: in vivo
# Protocol: The ability of selective TPH1 inhibitor CBMIDA to reduce peripheral serotonin measured in serum was tested. Either 250 or 500 mg/kg doses of CBMIDA were administered orally twice in 20 hours to 4 week old mice, 4-5 mice per group. As a control, some mice were untreated and some received 250 mg/kg pCPA orally. […] CBMIDA has been reported to be an EDTA analog that increases osteoid volume in beagle dogs and induces proliferation of rat calvarial-derived osteoblasts in vitro (Xie, et al., Bioorganic & Medicinal Chemistry Letters 15 (2005) 3267-3270, incorporated herein by reference in its entirety).
# (§1) One month old C57Bl/6 inbred male mice, weighing 15-16 g were used in the experiments. Animals were housed under 12 h light/12 h dark conditions in a room with controlled temperature (22° C.) and humidity (60%). Mice had ad libitum access to food and water, and were used after a minimum of 4 days of acclimatization to the housing conditions. All experiments were conducted following Columbia University Guidelines for the Animal Use and Care of laboratory mice.
# Before the experiments, animals were separated into individual cages one day prior to the experiment. Compounds were fed orally (gavage) to the mouse, calculated according to the weight of the mouse, twice a day at 1700 h and at 1100 h. […] This route created two potential barriers for the compound to reach the brain. […] Control animals received the same volume of vehicle. Blood was collected through heart puncture on isofluorane-anaesthesized animals and allowed to clot for 5 minutes on ice. The serum was separated, snap chilled in liquid nitrogen and frozen at −80° C. till analyzed. Brainstems from all the animals were collected and processed for brain serotonin measurement through HPLC.
# (§2) The Serotonin ELISA kit obtained from the Fitzgerald company was used to measure derivatized serotonin from serum. Derivatization is part of the sample preparation. Serotonin present in the serum was first quantitatively acylated into N-Acylserotonin using the acylation reagent. The principle of the assay is based on competitive ELISA, wherein serotonin that is bound to the solid phase of the plate and the N-acylserotonin compete for the fixed number of antiserum binding sites. When the reaction is in equilibrium, free antigen and free antigen-antiserum complexes are removed by washing.
# The antibody bound to the solid phase serotonin is then detected using antirabbit/peroxidase. The substrate TMB/Peroxidase reaction is read at 450 nm. The amount of antibody bound to the solid phase serotonin is inversely proportional to the concentration of serotonin in the sample.
# Catechol-3,6-bis methyleneiminodiacetic acid (CBMIDA) (basic structure is an EDTA-like compound and the catechol ring is at the centre) synthesized at the Columbia University Chemistry division, and para-chlorophenylalanine (pCPA) obtained from Sigma Aldrich Corp. were used. Each compound was dissolved with twice molar solution of NaHCO3 in water and given to mouse orally at 250 and 500 mg/kg/dose.
# [1] = system: peripheral serotonin production; experiment: Pilot study of tryptophan hydroxylase inhibitors on peripheral serotonin production in ovariectomized mice, Example 12; type: in vivo; conditions: pCPA used as control; FIG. 15
# Protocol: as §1, with “6-week” for “One month”, “female” for “male”, “12-14 g,” for “15-16 g”
# Animals were separated into different groups one day prior to the experiments. Mice were ovariectomized (OVX) under anaesthesia (Avertin). Compounds were fed orally (Gavage) twice a day at 1700 h and at 1100 h for the pilot study while for the long term study compounds were given at 1700 h once a day. […] This route creates two potential barriers for the compound to reach the brain. […] Control animals received the same volume of vehicle. Blood was collected through heart puncture on isofluorane-anaesthesized animals, allowed to clot for 5 minutes on ice and then serum was separated, snap chilled in liquid nitrogen and frozen at −80° C. till analyzed. Mice were observed daily for any physical or behavioral abnormality during the course of investigation.
# • Group 1: Vehicle • Group 2: Compound 1 • Group 3: Compound 2 • Group 4: Compound 3 • Group 5: Compound 4 (LP-533401) Experiment II: Effect of Compounds 1 and 4 on Protection from OVX-Induced Bone Loss Protocol 1: Gavage Feeding of the Compounds Will be Started 1 Day after OVX for 6 Weeks • Group 1: Sham treatment • Group 2: OVX • Group 3: OVX+Compound 1 (250 mg/kg) • Group 4: OVX+Compound 1 (500 mg/kg) • Group 5: OVX+Compound 4 (250 mg/kg) Protocol 2: Gavage Feeding of the Compounds Will be Started 2 Weeks after OVX for 6 Weeks • Group 1: Sham treatment • Group 2: OVX • Group 3: OVX+Compound 1 (250 mg/kg) • Group 4: OVX+Compound 1 (500 mg/kg) • Group 5: OVX+Compound 4 (250 mg/kg) Protocol 3: Gavage Feeding of the Compounds Will be Started 4 Weeks after OVX for 6 Weeks • Group 1: Sham treatment • Group 2: OVX • Group 3: OVX+Compound 1 (250 mg/kg) • Group 4: OVX+Compound 1 (500 mg/kg) • […] Serotonin Measurement in Serum
# as §2, with “acylated” for “acylated into N-Acylserotonin”, “reagent into N-Acylserotonin.” for “reagent.”, “washing. The antibody bound to the solid phase serotonin is then detected by anti-rabbit/peroxidase. The substrate TMB/Peroxidase reaction is read at 450 nm. The amount of antibody bound to the solid phase serotonin is inversely proportional to the concentration of serotonin in the sample.” for “washing.”
# We used Catechol-3,6-bis methyleneiminodiacetic acid [(CBMIDA) Compound 1: basic structure is a EDTA-like compound and the catechol ring is at the center)] synthesized at the Columbia University Chemistry division and para-Chlorophenylalanine (pCPA) obtained from Sigma Aldrich Corp. for our experiments. Compounds were dissolved with twice molar solution of NaHCO3 in water and given to mice orally at 250 and 500 mg/kg/dose. Compounds 2 and 3 were dissolved in water.
smiles,measurement,setting,value
"NC(Cc1ccc(Cl)cc1)C(=O)O (stereo not drawn) [pCPA, para-chlorophenylalanine]",reduction of peripheral serotonin measured in serum,"peripheral serotonin; 250 mg/kg orally twice in 20 hours, 4 week old mice",~50%
same,serum serotonin levels decreased to % below normal range,"peripheral serotonin; pCPA used as control, oral, FIG. 11",> 60%
same,serotonin levels decreased to % below normal range,[1],60%
